The values that follow are results of earlier work, collected in paper PMC4862372 (Bioorganic & medicinal chemistry, 2016).

For the data set, the system named is Huh7 cells. Conditions: high-throughput screen performed by GNF.

Consider `O=C(NCCc1nc(-c2ccccc2)cs1)c1ccccc1` [Compound 1, 2-(2-Benzamido)ethyl-4-phenylthiazole], for which the “Toxicity to mammalian (Huh7) cells” value is given as “non-toxic”.
